Tests used:
[1] = Displacement of [3H](S)-2-(tert-butoxy)-2-(2-methyl-4-(p-tolyl)quinolin-3-yl)acetic acid from LEDGF-binding site of recombinant T124/T125 polymorphic HIV1 integrase by LIDIA assay; parameters: species or system Human immunodeficiency virus 1
[2] = test system: Human immunodeficiency virus 1; test: Antiviral activity against recombinant HIV1 NLRep-Rluc harbouring polymorphic T124/T125 integrase infected in human MT-2 cells assessed as inhibition of virus growth in presence of fetal bovine serum by measuring luciferase activity after 5 days; assay type: functional, organism-based, MT2; details: Human immunodeficiency virus 1, NLRep, MT2, 120 h
[3] = Clearance in Sprague-Dawley rat at 1 mg/kg, iv by LC-MS/MS analysis; assay type: ADME, organism-based; details: in vivo
[4] = test system: Human immunodeficiency virus 1; test: Antiviral activity against recombinant HIV1 NLRep-Rluc harbouring polymorphic AT infected in human MT-2 cells assessed as inhibition of virus growth in presence of fetal bovine serum by measuring luciferase activity after 5 days; assay type: functional, organism-based; details: Human immunodeficiency virus 1, NLRep, MT2, 120 h
[5] = test system: Human immunodeficiency virus 1; test: Antiviral activity against recombinant HIV1 A128T-resitant mutant […] infected in human MT-2 cells assessed as inhibition of virus growth in presence of fetal bovine serum by measuring luciferase activity after 5 days; assay type: functional, organism-based; details: Human immunodeficiency virus 1, MT2, 120 h
[6] = Plasma protein binding in human; assay type: ADME, cell-free; details: read-out: PPB (converted)
[7] = Plasma protein binding in dog; assay type: ADME, cell-free, Canis lupus familiaris; details: read-out: PPB (converted)
[8] = Stability in pH 7.4 for 2 weeks at 50 degC; assay type: physicochemical; details: buffer, pH 7.4, 336 h
Cytochrome P450 1A2 = biological target: T1, Cytochrome P450 1A2 (Homo sapiens, UniProt P05177); test: Inhibition of human CYP1A2; assay type: ADME
T1 sequence (P05177 whole entry): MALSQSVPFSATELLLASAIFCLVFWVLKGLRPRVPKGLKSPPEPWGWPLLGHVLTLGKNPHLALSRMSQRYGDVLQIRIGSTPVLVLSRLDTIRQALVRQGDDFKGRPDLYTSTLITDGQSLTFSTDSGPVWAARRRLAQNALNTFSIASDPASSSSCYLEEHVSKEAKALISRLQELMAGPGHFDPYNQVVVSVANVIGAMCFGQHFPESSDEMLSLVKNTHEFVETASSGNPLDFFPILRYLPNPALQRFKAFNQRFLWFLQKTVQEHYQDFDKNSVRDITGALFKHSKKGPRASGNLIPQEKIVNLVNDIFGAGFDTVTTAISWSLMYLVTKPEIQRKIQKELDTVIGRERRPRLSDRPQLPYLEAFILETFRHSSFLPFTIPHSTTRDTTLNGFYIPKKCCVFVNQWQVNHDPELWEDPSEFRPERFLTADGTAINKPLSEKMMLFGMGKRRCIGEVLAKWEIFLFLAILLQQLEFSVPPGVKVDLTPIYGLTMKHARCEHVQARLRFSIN

Cytochrome P450 2C8 = biological target: T2, Cytochrome P450 2C8 (Homo sapiens, UniProt P10632); test: Inhibition of human CYP2C8; assay type: ADME
T2 sequence (P10632 whole entry): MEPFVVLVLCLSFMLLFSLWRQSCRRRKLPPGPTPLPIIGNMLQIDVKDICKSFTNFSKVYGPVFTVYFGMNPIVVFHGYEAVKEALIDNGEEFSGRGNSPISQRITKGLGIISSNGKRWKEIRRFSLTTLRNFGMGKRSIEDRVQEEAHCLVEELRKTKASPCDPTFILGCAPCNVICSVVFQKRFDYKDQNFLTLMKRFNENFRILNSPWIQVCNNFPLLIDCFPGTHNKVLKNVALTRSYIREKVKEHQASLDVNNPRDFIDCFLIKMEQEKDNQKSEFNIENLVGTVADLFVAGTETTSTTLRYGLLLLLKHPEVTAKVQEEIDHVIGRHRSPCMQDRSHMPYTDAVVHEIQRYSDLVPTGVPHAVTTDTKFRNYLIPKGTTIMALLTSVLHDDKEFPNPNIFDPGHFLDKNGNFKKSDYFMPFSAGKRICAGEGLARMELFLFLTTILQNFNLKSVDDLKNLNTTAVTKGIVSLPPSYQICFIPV

Cytochrome P450 2D6 = Cytochrome P450 2D6 (Homo sapiens, UniProt P10635); test: Inhibition of human CYP2D6; assay type: ADME
CYP = CYP (Homo sapiens, UniProt P04798+P05177+P05181+P08684+P10632+P10635+P11509+P11712+P13584+P20813+P20815+P20853+P24462+P24903+P33260+P33261+P51589+P78329+P98187+Q02928+Q08477+Q16678+Q16696+Q5TCH4+Q6VVX0+Q7Z449+Q8TAV3+Q96SQ9+Q9HB55); test: Half life in human assessed as CYP mediated metabolism in presence of […] by phase I metabolic oxidation assay; assay type: ADME, protein assay
UGT = UGT (Homo sapiens, UniProt O60656+O75310+O75795+P06133+P0DTE4+P0DTE5+P16662+P19224+P22309+P22310+P35503+P35504+P36537+P54855+Q6UWM9+Q9BY64+Q9HAW7+Q9HAW8+Q9HAW9); test: Metabolic stability assessed as human UGT-mediated metabolism by measuring half life by phase II UGT conjugation assay; assay type: ADME, protein assay
[9] = Clearance in Cynomolgus monkey at 1 mg/kg, iv by LC-MS/MS analysis; assay type: ADME, organism-based, Macaca fascicularis; details: in vivo
[10] = Volume of distribution at steady state in CD-1 mouse at 1 mg/kg, iv by LC-MS/MS analysis; assay type: ADME, organism-based; details: in vivo, read-out: Vdss
[11] = Volume of distribution at steady state in Beagle dog at 1 mg/kg, iv by LC-MS/MS analysis; assay type: ADME, organism-based, Canis lupus familiaris; details: in vivo, read-out: Vdss
[12] = Cmax in CD-1 mouse at 5 mg/kg, po by LC-MS/MS analysis; assay type: ADME, organism-based; parameters: route oral, dose 5 mg/kg; details: in vivo
[13] = Cmax in cynomolgus monkey at 2 mg/kg, po by LC-MS/MS analysis; assay type: ADME, organism-based, Macaca fascicularis; parameters: route oral, dose 2 mg/kg; details: in vivo
[14] = Cmax in Beagle dog at 2 mg/kg, po by LC-MS/MS analysis; assay type: ADME, organism-based, Canis lupus familiaris; parameters: route oral, dose 2 mg/kg; details: in vivo
[15] = Tmax in cynomolgus monkey at 2 mg/kg, po by LC-MS/MS analysis; assay type: ADME, organism-based, Macaca fascicularis; details: in vivo
[16] = Tmax in Beagle dog at 2 mg/kg, po by LC-MS/MS analysis; assay type: ADME, organism-based, Canis lupus familiaris; details: in vivo
[17] = Bioavailability in Beagle dog at 2 mg/kg, po by LC-MS/MS analysis; assay type: ADME, organism-based, Canis lupus familiaris; details: in vivo
sodium channel = test: Inhibition of sodium channel (unknown origin) at 10 uM; assay type: toxicity; details: human
[18] = Toxicity in rat assessed as maximum tolerated dose; details: in vivo
[19] = Toxicity in rat assessed as vacuolation of kidney at 500 mg/kg/day; assay type: organism-based; details: in vivo
[20] = Toxicity in rat assessed as histological changes in thymus at 500 mg/kg/day; assay type: organism-based; details: in vivo
[21] = Toxicity in rat assessed as histological changes in spleen at 500 mg/kg/day; assay type: organism-based; details: in vivo
[22] = Cardiotoxicity in dog heart assessed as increase in heart rate at 300 mg/kg; assay type: toxicity, organism-based, Canis lupus familiaris; details: in vivo
[23] = Toxicity in rat at 50 to 500 mg/kg in cannulated jugular vein; assay type: organism-based; details: in vivo, iv, dose 50-500 mg/kg
Salmonella typhimurium = test: Genotoxicity in Salmonella typhimurium TA102 by Ames test; assay type: toxicity, organism-based; details: salmonella enterica subsp. enterica serovar typhimurium

Cytochrome P450 2D6, sequence (P10635 whole entry): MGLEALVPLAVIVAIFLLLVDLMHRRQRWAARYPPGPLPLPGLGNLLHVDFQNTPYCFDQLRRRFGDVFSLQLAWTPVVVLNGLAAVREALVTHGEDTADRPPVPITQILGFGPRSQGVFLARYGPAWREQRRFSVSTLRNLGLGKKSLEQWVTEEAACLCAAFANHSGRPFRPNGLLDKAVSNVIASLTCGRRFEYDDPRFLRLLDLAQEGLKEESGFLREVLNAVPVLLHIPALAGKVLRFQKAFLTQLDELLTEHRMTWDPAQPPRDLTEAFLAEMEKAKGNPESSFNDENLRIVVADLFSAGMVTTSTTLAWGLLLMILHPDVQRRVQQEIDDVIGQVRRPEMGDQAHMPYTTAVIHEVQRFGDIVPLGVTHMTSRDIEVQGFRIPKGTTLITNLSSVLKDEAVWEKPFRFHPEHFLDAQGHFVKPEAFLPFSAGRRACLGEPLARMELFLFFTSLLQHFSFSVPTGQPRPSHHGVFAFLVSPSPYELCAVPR

Cc1nc(C)c([C@H](OC(C)(C)C)C(=O)O)c(N2CCC(C)(C)CC2)c1-c1ccc(OCCc2ccc(F)cc2)cc1
IC50 [1]: 11.1 nM | EC50 [2]: 1.7 nM | clearance [3]: 5.5 mL/min/kg | EC50 [4]: 5.1 nM | EC50 [5]: 363 nM | fraction unbound [6]: 0.2 | fraction unbound [7]: 0.13 | Stability [8]: Stable | IC50 (Cytochrome P450 1A2): ≥ 24.3 µM | IC50 (Cytochrome P450 2C8): ≥ 24.3 µM | IC50 (Cytochrome P450 2D6): ≥ 24.3 µM | half-life (CYP): 85 min | half-life (UGT): ≥ 120 min | clearance [9]: 14.5 mL/min/kg | Vd [10]: 2.4 L/kg | Vd [11]: 0.7 L/kg | Cmax [12]: 2360 nM | Cmax [13]: 525 nM | Cmax [14]: 2960 nM | Tmax [15]: 2 h | Tmax [16]: 2 h | bioavailability [17]: 75% | inhibition at 10 µM (sodium channel): 79% | MTD [18]: 50 mg/kg/day | Activity [19]: Toxic | Activity [20]: Toxic | Activity [21]: Toxic | Activity [22]: 15% | Activity [23]: Non-Toxic | Activity (Salmonella typhimurium): Non-Toxic

Source: ChEMBL document CHEMBL5046290, “Design, Synthesis, and Preclinical Profiling of GSK3739936 (BMS-986180), an Allosteric Inhibitor of HIV-1 Integrase with Broad-Spectrum Activity toward 124/125 Polymorphs” (J Med Chem, 2022)
